Measured values published in patent US20060205808A1, “Anti-inflammatory and cure for ageing, Alzheimer's disease on phloroglucinol derivatives” (Kaohsiung Medical University, priority 2005, published 2006).

How the values were obtained:
[1] = test system: rat neutrophils; test: release of β-glucuronidase from rat neutrophils stimulated with fMLP/CB; assay type: cell-based; settings: fMLP (1 μM)/CB (5 μg mL^−1); for IC50: means ± s.e.m. (n = 3-5)
[2] = test system: rat neutrophils; test: release of lysozyme from rat neutrophils stimulated with fMLP/CB; assay type: cell-based; settings: fMLP (1 μM)/CB (5 μg mL^−1); for IC50: means ± s.e.m. (n = 3-5)
[3] = test system: rat neutrophils; test: fMLP/CB-induced superoxide anion generation in rat neutrophils; assay type: cell-based
Experimental: (§1) FMLP (0.3 μM)/CB (5 μg mL^−1) or phorbol myristate acetate (PMA) (3 nM) stimulated superoxide anion generation in rat neutrophils. […] Trifluoperazine was used in this experiment as a positive control.

[4] = test system: rat neutrophils; test: PMA-induced superoxide anion generation in rat neutrophils; assay type: cell-based; settings: PMA (3 nM)
Experimental: as §1

[5] = test system: RAW 264.7 macrophage-like cells; test: NO production (nitrite accumulation, Griess reaction) in RAW 264.7 cells in response to LPS; assay type: cell-based; settings: LPS (1 μg mL^−1), 24 h; for IC50: read-out: IC50, accumulation of NO2^− in culture media, RAW 264.7 cells
Experimental: (§2) Treatment of RAW 264.7 macrophage-like cells with LPS (1 μg mL^−1) or N9 microglial cells with LPS (10 ng mL^−1)/IFN-γ (10 U mL^−1) for 24 h induced NO production as assessed by measuring the accumulation of nitrite, a stable metabolite of NO, in the media, based on the Griess reaction. […] 1400 W was used in this experiment as a positive control.

[6] = test system: N9 microglial cells; test: NO production (nitrite accumulation, Griess reaction) in N9 cells in response to LPS/IFN-γ; assay type: cell-based; settings: LPS (10 ng mL^−1)/IFN-γ (10 U mL^−1); for IC50: read-out: IC50, accumulation of NO2^− in culture media, N9 cells
Experimental: as §2

[7] = test system: mast cells and neutrophils; settings: background statement; cited from earlier work

IC50 [1]	IC50 [2]	IC50 ([3]; fMLP (0.3 μM)/CB (5 μg mL^−1))	IC50 [4]	IC50 [5]	IC50 ([6]; 24 h)	Compound	% of inhibition at the highest concentration, superoxide anion, PMA [4]	% of inhibition at the highest concentration, NO2^− accumulation, RAW 264.7 cells [5]	inhibition of chemical mediators release from mast cells and neutrophils (in words) [7]	other results
26.9 ± 2.6 µM	20 ± 1.3 µM	17 ± 0.9 µM	> 30 µM	> 10 µM	> 3 µM	CC(C)=CCC1CC2(CC=C(C)C)C(=O)C(C(=O)C(C)C)(C(=O)C(C=CC(C)(C)O)=C2O)C1(C)C (centres unmarked) [Compound 1, Garcinielliptone F]	46.8 ± 4.5%	22.9 ± 2.9%		inhibitory effect on release of β-glucuronidase (in words) [1]: potent inhibitory effects; inhibitory effect on release of lysozyme (in words) [2]: potent inhibitory effects; inhibitory effect on fMLP/CB-induced superoxide anion generation (in words) ([3]; fMLP/CB (5 μg mL^−1)): potent inhibitory effect; % of inhibition at the highest concentration, NO2^− accumulation, N9 cells ([6]; 24 h, highest concentration): 31.2 ± 0.7%
						CN1CCN(CCCN2c3ccccc3Sc3ccc(C(F)(F)F)cc32)CC1 [Trifluoperazine, reference compound]				IC50 ([1]; Neutrophil): 10.6 ± 0.9 µM; IC50 ([2]; Neutrophil): 13.2 ± 0.7 µM; IC50 ([3]; Neutrophil, fMLP (0.3 μM)/CB (5 μg mL^−1)): 6.6 ± 0.2 µM; IC50 ([4]; Neutrophil): 2.7 ± 0.6 µM
						CC(C)=CCC1=C2O[C@H](C(C)(C)O)C[C@@]23C[C@H](CC=C(C)C)C(C)(C)[C@@](C(=O)C(C)C)(C1=O)C3=O [Garsubellin A]			strongly inhibited	
> 30 µM	> 30 µM	> 30 µM	> 30 µM	> 30 µM	7.4 ± 0.2 µM	Garcinielliptone I [Compound 4]	−76.3 ± 7.3%	17.4 ± 1.5%		% of inhibition at the highest concentration, β-Glucuronidase release ([1]; highest concentration): 15.6 ± 2.7%; % of inhibition at the highest concentration, Lysozyme release ([2]; highest concentration): −1.6 ± 7.3%; % of inhibition at the highest concentration, superoxide anion, fMLP/CB ([3]; fMLP (0.3 μM)/CB (5 μg mL^−1), highest concentration): 2.8 ± 5.7%; effect on production of NO induced by LPS/IFN-γ in N9 cells (in words) [6]: potent inhibitory effect
				3 ± 0.2 µM	2.2 ± 0.1 µM	CC(=N)NCc1cccc(CN)c1 [Compound 1400W, N-(3-Aminomethyl) benzylacetamidine, reference compound]				
						CC(C)=CC[C@H]1C[C@]2(CC=C(C)C)C(=O)[C@]3(CC=C(C)C)O[C@@]1(C(=O)C(C)C)[C@@]2(O)C(C)(C)C3=O [garcinielliptin oxide]			strongly inhibited	
